The assay addresses T1, human iGluR4 (Homo sapiens, UniProt P48058).
T1 construct: expressed in transfected cells
Nature of the assay: Whole-cell voltage clamp electrophysiology of AMPA receptor potentiation in HEK293 cells expressing human iGluR4. In kind it is cell-based. To be noted: HEK293 cells stably expressing human iGluR4; voltage-clamped at −60 mV; 1 mM glutamate; fit to Hill equation; read-out: activity (EC50 value, potency of potentiation of the current evoked by glutamate). The text has this:
HEK293 cells stably expressing human iGluR4 (obtained as described in European Patent Application Publication No. EP-A1-0583917) are used in the electrophysiological characterization of AMPA receptor potentiators. The extracellular recording solution contains (in mM): 140 NaCl, 5 KCl, 10 HEPES, 1 MgCl2, 2 CaCl2, 10 glucose, pH=7.4 with NaOH, 295 mOsm kg-1. The intracellular recording solution contains (in mM): 140 CsCl, 1 MgCl2, 10 HEPES, (N-[2-hydroxyethyl]piperazine-N1-[2-ethanesulfonic acid]) 10 EGTA (ethylene-bis(oxyethylene-nitrilo)tetraacetic acid), pH=7.2 with CsOH, 295 mOsm kg-1. With these solutions, recording pipettes have a resistance of 2-3 MΩ. […] Responses to 1 mM glutamate are then determined in the presence of test compound. […]
In order to determine the potency of the test compound, the concentration of the test compound, both in the bathing solution and co-applied with glutamate, is increased in half log units until the maximum effect is seen. […] Reversibility of test compound activity is determined by assessing control glutamate 1 mM responses. Once the control responses to the glutamate challenge are re-established, the potentiation of these responses by 100 μM cyclothiazide is determined by its inclusion in both the bathing solution and the glutamate-containing solution. In this manner, the efficacy of the test compound relative to that of cyclothiazide can be determined. […]

The values below come from patent US8097652B2, “AMPA receptor potentiators” (Eli Lilly and Company, priority 2006, dated 2012).

T1 sequence (P48058 22-902 limits assumed): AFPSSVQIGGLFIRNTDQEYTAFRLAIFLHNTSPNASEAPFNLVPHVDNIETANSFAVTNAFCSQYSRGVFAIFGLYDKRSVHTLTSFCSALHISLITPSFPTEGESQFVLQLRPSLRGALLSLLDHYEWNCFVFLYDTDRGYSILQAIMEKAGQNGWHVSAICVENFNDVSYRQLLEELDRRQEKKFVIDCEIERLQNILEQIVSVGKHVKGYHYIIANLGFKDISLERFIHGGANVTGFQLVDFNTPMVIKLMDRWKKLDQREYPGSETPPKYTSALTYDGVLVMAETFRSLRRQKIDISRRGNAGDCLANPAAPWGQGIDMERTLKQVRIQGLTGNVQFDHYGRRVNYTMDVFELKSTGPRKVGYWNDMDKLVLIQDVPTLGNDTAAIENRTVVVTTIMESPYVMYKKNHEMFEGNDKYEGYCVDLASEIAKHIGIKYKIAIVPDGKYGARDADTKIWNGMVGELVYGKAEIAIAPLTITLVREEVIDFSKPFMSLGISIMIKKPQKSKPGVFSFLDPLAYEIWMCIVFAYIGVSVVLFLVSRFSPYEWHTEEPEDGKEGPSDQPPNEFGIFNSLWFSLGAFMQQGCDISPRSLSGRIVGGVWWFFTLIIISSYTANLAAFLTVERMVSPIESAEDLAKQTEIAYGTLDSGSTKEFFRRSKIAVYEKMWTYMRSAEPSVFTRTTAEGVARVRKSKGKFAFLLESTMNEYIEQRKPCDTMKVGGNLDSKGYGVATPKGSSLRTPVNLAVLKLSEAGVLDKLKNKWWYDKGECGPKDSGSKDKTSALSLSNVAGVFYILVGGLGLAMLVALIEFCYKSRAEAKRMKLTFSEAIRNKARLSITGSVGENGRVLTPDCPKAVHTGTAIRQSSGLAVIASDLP

For `CC(C)S(=O)(=O)NC[C@H](C)c1ccc(-c2ccc(C(=O)O)cc2C#N)cc1` [Example 1, 1-(R)-2-Cyano-4′-[1-methyl-2-(propane-2-sulfonylamino)-ethyl]-biphenyl-4-carboxylic acid], the EC50 was determined as 188 ± 15.3 nM.

Usually EC50 stands for the midpoint of the concentration-response curve.
